Data from ChEMBL document CHEMBL5131471, “Design, synthesis and mechanism studies of novel dual PARP1/BRD4 inhibitors against pancreatic cancer” (Eur J Med Chem, 2022).
Active and inactive are the calls of the source. No cut-off for these calls is given here.

Key:
[1] = Toxicity in nude mouse xenografted with human SW1990 cells assessed as kidney damage at 45 mg/kg, ip administered for 28 days by H and E staining based fluorescence microscopic analysis; format: organism-based; settings: in vivo, 672 h, time 28 day
Mus musculus [2] = test: Upregulation of CDC25B expression in nude mouse xenografted with human SW1990 cells at 45 mg/kg, ip measured after 4 days by Q-PCR analysis; format: functional, organism-based; settings: time 4.0 day
Mus musculus [3] = test: Upregulation of CCND1 expression in nude mouse xenografted with human SW1990 cells at 45 mg/kg, ip measured after 4 days by Western blot analysis; format: functional, organism-based; settings: time 4.0 day
SW1990 [4] = test: Effect on CDK6 gene expression in human SW1990 cells at 6 uM by Q-PCR analysis; format: functional, cell-based
SW1990 [5] = test: Effect on BRCA2 gene expression in human SW1990 cells at 6 uM by Q-PCR analysis; format: functional, cell-based
SW1990 [6] = test: Upregulation of BRCA1 expression in human SW1990 cells at 6 uM measured after 4 days by Western blot analysis; format: functional, cell-based; settings: time 4.0 day
SW1990 [7] = test: Induction of Rad51 accumulation in nucleus of human SW1990 cells at 6 uM measured after 4 days by Western blot analysis; format: functional, cell-based; settings: time 4.0 day
SW1990 [8] = test: Induction of apoptosis in human SW1990 cells assessed as late apoptotic cells at 1 uM measured after 4 days in presence of 3 uM Olaparib by Annexin V-FITC and propidium iodide staining based flow cytometry (reference value: 7.23%); format: functional; settings: time 4 day
[9] = Toxicity in nude mouse xenografted with human SW1990 cells assessed as spleen damage at 15 mg/kg, ip administered for 28 days by H and E staining based fluorescence microscopic analysis; format: organism-based; settings: in vivo, 672 h, time 28 day
[10] = Toxicity in nude mouse xenografted with human SW1990 cells assessed as lung damage at 15 mg/kg, ip administered for 28 days by H and E staining based fluorescence microscopic analysis; format: organism-based; settings: in vivo, 672 h, time 28 day
[11] = Toxicity in nude mouse xenografted with human SW1990 cells assessed as kidney damage at 15 mg/kg, ip administered for 28 days by H and E staining based fluorescence microscopic analysis; format: organism-based; settings: in vivo, 672 h, time 28 day
[12] = Toxicity in nude mouse xenografted with human SW1990 cells assessed as kidney damage at 15 mg/kg, ip administered for 28 days in presence of 45 mg/kg Olaparib by H and E staining based fluorescence microscopic analysis; format: organism-based; settings: in vivo, 672 h, time 28 day
SW1990 [13] = test: Induction of apoptosis in human SW1990 cells assessed as necrotic cells at 1 uM measured after 4 days in presence of 3 uM Olaparib by Annexin V-FITC and propidium iodide staining based flow cytometry (reference value: 2.45%); format: functional; settings: time 4 day
SW1990 [14] = test: Induction of cell cycle arrest in human SW1990 cells assessed as accumulation of cells at S phase at 4 uM incubated for 4 days by propidium iodide staining based flow cytometry (reference value: 29.32%); format: functional; settings: time 4 day
SW1990 [15] = test: Induction of cell cycle arrest in human SW1990 cells assessed as accumulation of cells at G0/G1 phase at 1 uM incubated for 4 days in presence of 3 uM Olaparib by propidium iodide staining based flow cytometry (reference value: 64.79%); format: functional; settings: time 4 day
SW1990 [16] = test: Effect on CDK6 gene expression in human SW1990 cells at 4 uM by Q-PCR analysis; format: functional, cell-based
SW1990 [17] = test: Effect on CCND1 gene expression in human SW1990 cells at 4 uM by Q-PCR analysis; format: functional, cell-based
SW1990 [18] = test: Effect on Rad51 gene expression in human SW1990 cells at 4 uM by Q-PCR analysis; format: functional, cell-based
SW1990 [19] = test: Effect on ALDH1A1 gene expression in human SW1990 cells at 4 uM by Q-PCR analysis; format: functional, cell-based
SW1990 [20] = test: Effect on BRCA2 gene expression in human SW1990 cells at 1 uM in presence of Olaparib by Q-PCR analysis; format: functional, cell-based
SW1990 [21] = test: Downregulation of Ki67 expression in human SW1990 cells at 15 mg/kg, ip measured after 28 days by immuno histochemical staining based fluorescence microscopic analysis; format: functional, organism-based; settings: time 28.0 day
Mus musculus [22] = organism: Mus musculus; settings: dose 15.0 mg/kg, route ip, time 28.0 day
Mus musculus [23] = organism: Mus musculus; settings: dose 15.0 mg/kg, route ip, time 28.0 day; remark: listed apart in the source
SW1990 [24] = test: Inhibition of colony formation in human SW1990 cells at 1 uM after 14 days by crystal violet staining based microscopic analysis; format: functional, cell-based; settings: time 14.0 day
MDA-MB-231 = test: Antiproliferative activity against BRCA-proficient human MDA-MB-231 cells assessed as inhibition of cell growth measured after 7 days by MTT assay; format: functional, cell-based; settings: MDA-MB-231, 168 h
[25] = Toxicity in nude mouse xenografted with human SW1990 cells assessed as liver damage at 30 mg/kg, ip administered for 28 days by H and E staining based fluorescence microscopic analysis; format: organism-based; settings: in vivo, 672 h, time 28 day
Mus musculus [26] = test: Inhibition of BRD4 expression in nude mouse xenografted with human SW1900 cells at 30 mg/kg, ip administered for 28 days by DAPI staining based laser confocal microscopic analysis; format: functional, organism-based; settings: time 28.0 day
Mus musculus [27] = test: Inhibition of BRD4 expression in nude mouse xenografted with human SW1900 cells at 30 mg/kg, ip administered for 28 days by Western blot analysis; format: functional, organism-based; settings: time 28.0 day
Mus musculus [28] = test: Inhibition of BRD4 expression in nude mouse xenografted with human SW1900 cells at 30 mg/kg, ip administered for 28 days by Q-PCR analysis; format: functional, organism-based; settings: time 28.0 day
Mus musculus [29] = test: Inhibition of CCNB1 expression in nude mouse xenografted with human SW1990 cells at 30 mg/kg, ip measured after 4 days by Q-PCR analysis; format: functional, organism-based; settings: time 4.0 day
Mus musculus [30] = test: Inhibition of CDK6 expression in nude mouse xenografted with human SW1990 cells at 30 mg/kg, ip measured after 4 days by Western blot analysis; format: functional, organism-based; settings: time 4.0 day
Mus musculus [31] = test: Inhibition of CDK1 expression in nude mouse xenografted with human SW1990 cells at 30 mg/kg, ip measured after 4 days by Western blot analysis; format: functional, organism-based; settings: time 4.0 day
SW1990 [32] = test: Inhibition of homologous recombinant repair in human SW1990 cells assessed as reversal of Olaparib-induced c-Myc expression at 1 to 2 uM after 4 days by Western blot analysis; format: functional, cell-based; settings: dose 1-2 µM, time 4.0 day
Mus musculus [33] = test: Inhibition of homologous recombinant repair in nude mouse xenografted with human SW1990 cells assessed as reversal of olaparib-induced ALDH1A1 expression at 30 mg/kg, ip after 4 days by Western blot analysis; format: functional, organism-based; settings: time 4.0 day
Mus musculus [34] = test: Inhibition of homologous recombinant repair in nude mouse xenografted with human SW1990 cells assessed as reversal of olaparib-induced FOXM1 expression at 30 mg/kg, ip measured after 4 days by Western blot analysis; format: functional, organism-based; settings: time 4.0 day
SW1990 [35] = test: Effect on CDK1 gene expression in human SW1990 cells at 1 to 2 uM by Q-PCR analysis; format: functional, cell-based; settings: dose 1-2 µM
SW1990 [36] = test: Effect on FOXO1 gene expression in human SW1990 cells at 1 to 2 uM by Q-PCR analysis; format: functional, cell-based; settings: dose 1-2 µM
SW1990 [37] = test: Inhibition of CDC25B protein expression in human SW1990 cells at 1 to 2 uM measured after 4 days by Western blot analysis; format: functional, cell-based; settings: dose 1-2 µM, time 4.0 day
SW1990 [38] = test: Inhibition of CCNB1 protein expression in human SW1990 cells at 1 to 2 uM measured after 4 days by Western blot analysis; format: functional, cell-based; settings: dose 1-2 µM, time 4.0 day

**Q.** For `O=C(c1cc(Cc2n[nH]c(=O)c3ccccc23)ccc1F)N1CCN(C(=O)C2CC2)CC1` [OLAPARIB], which Activity [1] is on record?
**A.** Non-Toxic

**Q.** What about the Activity (Mus musculus [2]) of the same compound?
**A.** Active

**Q.** What about the Activity (Mus musculus [3]) of the same compound?
**A.** Active

**Q.** What about the Activity (SW1990 [4]) of the same compound?
**A.** Active

**Q.** And the Activity (SW1990 [5])?
**A.** Active

**Q.** And the Activity (SW1990 [6])?
**A.** Active

**Q.** And the Activity (SW1990 [7])?
**A.** Active

**Q.** With `Cc1sc2c(c1C)C(c1ccc(Cl)cc1)=N[C@@H](CC(=O)OC(C)(C)C)c1nnc(C)n1-2` as the compound, how does the Activity (SW1990 [8]) read?
**A.** 34.5%

**Q.** What about the Activity [9] of the same compound?
**A.** Non-Toxic

**Q.** And the Activity [10]?
**A.** Non-Toxic

**Q.** What about the Activity [11] of the same compound?
**A.** Non-Toxic

**Q.** And the Activity [12]?
**A.** Non-Toxic

**Q.** And the Activity (SW1990 [13])?
**A.** 5.76%

**Q.** And the Activity (SW1990 [14])?
**A.** 19.43%

**Q.** What about the Activity (SW1990 [15]) of the same compound?
**A.** 71.53%

**Q.** And the Activity (SW1990 [16])?
**A.** Active

**Q.** What about the Activity (SW1990 [17]) of the same compound?
**A.** Active

**Q.** What about the Activity (SW1990 [18]) of the same compound?
**A.** Active

**Q.** What about the Activity (SW1990 [19]) of the same compound?
**A.** Active

**Q.** And the Activity (SW1990 [20])?
**A.** Active

**Q.** What about the Activity (SW1990 [21]) of the same compound?
**A.** Active

**Q.** What about the inhibition (Mus musculus [22]) of the same compound?
**A.** Active

**Q.** And the inhibition (Mus musculus [23])?
**A.** Active

**Q.** What does the source list for `Cc1noc(C)c1-c1ccc2c(c1)C(c1ccccc1)N(Cc1nc3c(C(N)=O)cccc3[nH]1)C(=O)N2C` (centres undefined)?
**A.** inhibition (SW1990 [24]): Active; IC50 (MDA-MB-231): 0.14 µM; Activity [25]: Non-Toxic; inhibition (Mus musculus [26]): Active; inhibition (Mus musculus [27]): Active; inhibition (Mus musculus [28]): Active; inhibition (Mus musculus [29]): Active; inhibition (Mus musculus [30]): Active; inhibition (Mus musculus [31]): Active; inhibition (SW1990 [32]): Active; inhibition (Mus musculus [33]): Active; inhibition (Mus musculus [34]): Active; Activity (SW1990 [35]): Active; Activity (SW1990 [36]): Active; inhibition (SW1990 [37]): Active; inhibition (SW1990 [38]): Active
